For data set [1] the following is noted: rat heart rate elevation and anti-goiter assays; cited from earlier work.
A further data set deals with Hairless (Hr) mRNA. The data set can be described thus: Induction of Hairless (Hr) mRNA expression in the brain by qPCR after ip administration. Type of data set: in vivo, C57BL/6J mice. Particulars: for induction of Hr expression: 9.14 μmol/kg ip; for induction of Hr expression / EC50 of Hr mRNA induction in the brain / Hr induction compared to GC-1: 2 hr; for induction of Hr expression / Hr induction compared to GC-1 / potency greater than GC-1 (Hr induction, single dose): brain; for induction of Hr expression / EC50 of Hr mRNA induction in the brain: normalized to GAPDH mRNA; for EC50 of Hr mRNA induction in the brain: ip, ±SEM; for Hr induction compared to GC-1: analogs at 0.914 μmol/kg ip; for potency greater than GC-1 (Hr induction, single dose): from single dose comparison. How it is done:
Euthanasia was performed on three mice per dose at 2 hr and the tissues were harvested. The brain tissues collected for qPCR analysis were processed according to a protocol for RNA extraction using Trizol reagent and the PureLink RNA mini kit, using Qiagen RNase-free DNase kit during the optional DNase treatment step. 1 μg of extracted RNA was used to synthesize cDNA via a reverse transcription (RT) reaction using the Qiagen QuantiTect Reverse Transcription kit. DNA contamination was controlled for by duplicating one sample without the addition of RT enzyme. Expression of the Hairless (Hr) gene was measured by QPCR using the QuantiTect SYBR green PCR kit from Qiagen. The primer sequences for hairless ([…]; Rev: [NT] were previously described by Barca-Mayo19. The template cDNA was diluted 2-fold to minimize the interference of RT reagents in the qPCR reaction. Glyceraldehyde-3-Phosphate Dehydrogenase (GAPDH) was the housekeeping gene used for normalizing between samples. Data analysis for single dose experiment was done using the comparative CT method to look at the relative differences in Hr gene expression.
On the technique in general: Real-time PCR tracks product formation cycle by cycle.

Data set [2] can be described thus: Distribution study in brain and serum after systemic (ip) administration, LC-MS/MS. Particulars: 9.14 μmol/kg ip, 1 hr post-injection. Type of data set: in vivo, C57BL/6J mice. How it is done:
Euthanasia was performed on three mice per dose at 1 hr and the tissues and blood were harvested. Tissues were immediately frozen and blood was kept on ice for a minimum of 30 minutes and then spun down at 7,500×G for 15 minutes. Serum (100 uL) was collected and was stored with tissues at −80° C. until samples were processed.
The serum samples were warmed to RT and 10 uL of 2.99 μM internal standard (D6-GC-1) was added to them. Acetonitrile (500 uL) was added and the sample was vortexed for 20 seconds. The sample was then centrifuged at 10,000×G for 15 minutes at 4° C. Next, 90% of the upper supernatant was transferred to a glass test tube and concentrated using a speedvac for 1.5 hr at 45° C. The dried sample was then dissolved in 400 μL of 50:50 ACN:H2O and vortexed for 20 seconds. The resulting mixture was transferred to an Eppendorf tube and centrifuged at 10,000×G for 15 minutes. The supernatant was filtered with […] centrifugal filters and submitted for LCMS/MS analysis. […] The processing was performed exactly the same except after filtering the sample was split among 6 vials.
The brain samples were warmed to RT and transferred to a homogenizer tube with 5 GoldSpec ⅛ chrome steel balls (Applied Industrial Technologies). The resulting tube was weighed and then 1 mL of H2O was added, followed by 10 μL of 2.99 μM internal standard (D6-Sobetirome). The tube was homogenized with a Bead Bug for 30 seconds and then transferred to a Falcon® tube containing 3 mL of ACN. A 1 ml volume of ACN was used to wash the homogenizer tube. Then the solution was transferred back to the Falcon® tube. The sample was then processed using the same method for the serum processing described above except the sample was concentrated in a glass tube using a speed vac for 4 hr at 45° C.
A distribution study was carried out in C57BL/6J mice to determine the concentrations in brain and serum after systemic (ip) administration. […] Tissue and blood were collected 1 hr post-injection and the concentration of the drugs was determined by LC-MS/MS analysis (FIG. 2).

Data set [3] relates to hTRβ1. Kind of data set: TRE-driven dual luciferase transactivation assay, TRβ. Type of data set: cell-based, human. The conditions noted are these: transactivation assays in HEK293 cells. How it is done: (§1) The cells were trypsinized with 0.25% trypsin, then diluted to 5×10^5 cells/mL with high glucose DMEM. […] 1.5 μg of TR expression vector (full length TRα-CMV or TRβ-CMV), 1.5 μg of a reporter plasmid containing a DR4 thyroid hormone response element (TRE) direct repeat spaced by four nucleotides (AGGTCAcaggAGGTCA) cloned upstream of a minimal thymidine kinase promoter linked to a firefly luciferase coding sequence, and 0.75 μg of a pRL-SV40 constitutive Renilla luciferase reporter plasmid were diluted into 540 μl of OptiMEM. 27 μL of lipofectamine reagent was diluted into 540 μL of OptiMEM. The plasmid and lipofectamine dilutions were combined then incubated at RT for 10 min. The mixture was then diluted into 4.29 mL of OptiMEM. Plates were washed with 100 μL of phosphate buffered saline (PBS) at pH 7.2 without magnesium or calcium chloride per well. Transfection mixtures were added at 50 μL per well, then incubated at 37° C. for 4 hours. Modified DME/F-12 Ham's medium without phenol red containing 15 mM HEPES and bicarbonate, 5 mM L-glutamine, charcoal-stripped FBS, 50 units/mL penicillin and 50 μg/mL streptomycin was added at 50 μL per well, then the plates were incubated at 37° C. for 20 hours. Drug stocks were made at 10 mM in DMSO, then serially diluted to 1× concentrations in DME/F-12 Ham's. Plates were washed with 100 μL of PBS (pH 7.2) per well. 100 μL of each drug stock was added to the wells in triplicate, and then the plates were incubated at 37° C. for 24 hours.
(§2) Cells were assayed for luciferase activity using the Promega DualGlo kit. […] A 50 μl volume of Stop & Glo Reagent was added per well, then the plate was read for Renilla luciferase activity. Data normalized to Renilla internal control were analyzed with GraphPad Prism v.4a using the sigmoid dose response model to generate EC50 values±SEM.

Data set [4] addresses hTRβ1 (Homo sapiens (Human), UniProt P10828). Described as above. The format is cell-based. The conditions noted are these: transiently transfected HEK293 cells; ±SEM. How it is done:
as §1, §2

A further data set has as its target hTRα1 (Homo sapiens (Human), UniProt P10827). The data set can be described thus: TRE-driven dual luciferase transactivation assay, TRα. Type of data set: cell-based. Particulars: transiently transfected HEK293 cells; ±SEM. On the procedure:
The cells were trypsinized with 0.25% trypsin, then diluted to 5×10^5 cells/mL with high glucose DMEM. […] 1.5 μg of TR expression vector (full length TRα-CMV or TRβ-CMV), 1.5 μg of a reporter plasmid containing a DR4 thyroid hormone response element (TRE) direct repeat spaced by four nucleotides (AGGTCAcaggAGGTCA) cloned upstream of a minimal thymidine kinase promoter linked to a firefly luciferase coding sequence, and 0.75 μg of a pRL-SV40 constitutive Renilla luciferase reporter plasmid were diluted into 540 μl of OptiMEM. 27 μL of lipofectamine reagent was diluted into 540 μL of OptiMEM. The plasmid and lipofectamine dilutions were combined then incubated at RT for 10 min. The mixture was then diluted into 4.29 mL of OptiMEM. Plates were washed with 100 μL of phosphate buffered saline (PBS) at pH 7.2 without magnesium or calcium chloride per well. Transfection mixtures were added at 50 μL per well, then incubated at 37° C. for 4 hours. […]
as §2

Data set [5] can be described thus: Single time-point drug distribution of parent drugs from amides in brain and serum. Type of data set: in vivo, C57Bl/6 mice. Particulars: equimolar systemic dose of 3.05 μmol/kg, 1 hour, brain. On the procedure:
Wild type male C57Bl/6 mice, aged 8-10 weeks, were housed in a climate-controlled room with a 12 hour light-dark cycle with ad libitum access to food and water. To compare the single time-point drug distribution of JD-20 with JD-20 generated from the amide MA-JD20, and JD-21 with JD-21 generated from the amide MA-JD-21, the concentrations of the parent drugs were analyzed in brain and serum of mice by administering a dose of 3.05 μmol/kg (three mice per dose) with JD-20, JD-21, MA-JD20 and MA-JD21 both intraperitoneally and orally. The compounds were dissolved in a mixture of 50:50 DMSO and 0.9% sodium chloride bacteriostatic solution. Oral gavage was performed with the use of plastic feeding tubes (20 ga×38 mm, Instech Laboratories Inc., PA, USA) connected to […] insulin syringes (Covidien LLC MA, USA). In both experiments, the mice were euthanized after 1 hour following drug administration.
The tissues were processed as follows: The brains were collected in previously weighed homogenizer tubes with 3 Gold Spec ⅛ chrome steel balls (Applied Industrial Technologies) and immediately frozen at −80° C. The blood samples were kept on ice for 30 mins and then spun down at 5400×G at 4° C. for 15 min. […]
The serum samples were warmed to room temperature. […] The serum samples thus prepared were submitted for LC-MS/MS analysis to quantify the amount of free JD-20 or JD-21. […]

A further data set has as its target Human FAAH (Homo sapiens (Human), UniProt O00519). The data set can be described thus: FAAH activity in cell homogenate. The format is biochemical. How it is done: COS-7 cells (ATCC CRL-1651) were cultured in Dulbecco's Modified Eagle's Medium supplemented with 10% FBS, penicillin ([…]), and streptomycin ([…]). Cells (800,000/well) were seeded into 6-well plates (Falcon 353046) and left to adhere overnight. Cells were transfected with pcDNA4-FAAH-FLAG with Lipofectamine 2000 (Invitrogen) according to the manufacturer's protocol. Mock transfection controls were done with transfection reagent and no DNA. Cells were washed 4-days post transfection with cold PBS and scraped into TE buffer (125 mM Tris, 1 mM EDTA, pH 9) and sonicated (10 sec, 60 Sonic Dismembrator, Fisher). Cell homogenates were stored at −80° C. and protein concentrations were determined by BCA (Pierce). Cell homogenates were diluted into TE buffer containing 0.1% fatty-acid free BSA (Alfa Aesar). Substrates were added as 50× stocks in DMSO into 50 μL aliquots of homogenate to a final concentration of 100 μM. Reactions were performed with homogenate protein at 31.25 μg/mL for 15 min at 37° C. Reactions were quenched with 100 μL acetonitrile and vortexed for 20 s. Samples were clarified by centrifuge (10,000 rpm, 15 min, 4° C.). The supernatant is diluted 50-fold into 2:1 MeCN:H2O containing 300 nM d11-arachindonic acid and 30 nM d6-sobetirome. Samples were centrifuged again (13,200 rpm, 15 min, 4° C.). Products were quantified by LC/MS-MS with standard curves generated from mock samples. Observed rates are expressed as nmol product per mg protein homogenate per min.
FAAH was overexpressed in COS-7 cells as described above and cell homogenate was used to measure observed rates of substrate cleavage compared with the classic endogenous FAAH substrate anandamide (AEA). Substrate were all tested at 100 μM. Compared to AEA, the thyromimetic amides MA-GC 1 (9-fold), MA-JD20 (31-fold), and MA-JD21 (20-fold) show decreased rates. […] Observed rates are expressed as nmol product per mg homogenate protein per min.

The structures appear in SMILES notation.

The term EC50 denotes the concentration at which the effect is half-maximal.

Sequence of hTRα1 (P10827 other isoform, or with tags, fused parts or gaps): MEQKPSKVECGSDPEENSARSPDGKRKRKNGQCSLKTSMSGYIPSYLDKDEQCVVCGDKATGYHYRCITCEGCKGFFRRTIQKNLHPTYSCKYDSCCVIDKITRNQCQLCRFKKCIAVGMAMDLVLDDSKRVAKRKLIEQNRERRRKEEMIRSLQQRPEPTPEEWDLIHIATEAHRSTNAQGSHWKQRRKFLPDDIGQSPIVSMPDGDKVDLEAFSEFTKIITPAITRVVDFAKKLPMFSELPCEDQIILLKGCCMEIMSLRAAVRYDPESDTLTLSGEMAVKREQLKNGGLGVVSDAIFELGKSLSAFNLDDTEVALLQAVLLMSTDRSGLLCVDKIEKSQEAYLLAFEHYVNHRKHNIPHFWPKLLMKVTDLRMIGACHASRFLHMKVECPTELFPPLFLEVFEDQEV
Sequence of hTRβ1 (Homo sapiens (Human), UniProt P10828) (P10828 whole entry, looked up): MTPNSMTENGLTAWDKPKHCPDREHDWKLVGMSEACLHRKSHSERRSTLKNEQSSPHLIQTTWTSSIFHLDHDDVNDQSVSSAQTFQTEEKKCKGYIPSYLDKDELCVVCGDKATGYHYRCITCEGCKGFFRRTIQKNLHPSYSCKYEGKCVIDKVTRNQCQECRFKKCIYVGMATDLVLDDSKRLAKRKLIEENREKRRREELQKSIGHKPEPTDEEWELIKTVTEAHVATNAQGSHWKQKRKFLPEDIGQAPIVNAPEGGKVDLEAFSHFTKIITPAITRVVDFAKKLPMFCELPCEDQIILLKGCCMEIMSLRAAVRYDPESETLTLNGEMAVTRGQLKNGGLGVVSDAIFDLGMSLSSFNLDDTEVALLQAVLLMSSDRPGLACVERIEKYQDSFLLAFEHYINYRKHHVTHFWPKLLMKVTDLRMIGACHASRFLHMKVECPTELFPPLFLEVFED
Sequence of Human FAAH (O00519 whole entry): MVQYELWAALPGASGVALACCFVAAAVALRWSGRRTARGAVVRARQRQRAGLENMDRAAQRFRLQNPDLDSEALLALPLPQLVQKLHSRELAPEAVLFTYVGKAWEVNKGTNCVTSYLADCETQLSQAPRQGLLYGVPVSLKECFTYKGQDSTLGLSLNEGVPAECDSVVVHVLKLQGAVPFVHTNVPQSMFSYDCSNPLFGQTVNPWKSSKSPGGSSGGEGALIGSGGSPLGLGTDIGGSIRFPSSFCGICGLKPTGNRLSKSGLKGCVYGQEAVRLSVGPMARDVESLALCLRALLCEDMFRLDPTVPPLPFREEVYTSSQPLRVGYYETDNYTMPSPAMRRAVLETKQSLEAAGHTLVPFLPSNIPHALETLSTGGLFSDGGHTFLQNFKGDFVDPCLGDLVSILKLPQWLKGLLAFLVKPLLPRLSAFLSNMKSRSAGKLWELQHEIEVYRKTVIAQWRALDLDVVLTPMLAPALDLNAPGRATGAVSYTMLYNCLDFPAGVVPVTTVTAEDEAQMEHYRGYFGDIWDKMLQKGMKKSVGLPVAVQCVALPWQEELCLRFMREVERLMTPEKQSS

`Cc1cc(CC(N)C(=O)O)cc(C)c1Oc1ccc(O)c(C(C)C)c1` (racemic) [DIMIT, 3′-isopropyl-3,5-dimethyl-DL-thyronine]: the activity entry in data set [1] was “little measurable activity”.
With `CC(C)c1cc(Oc2c(Br)cc(C[C@H](N)C(=O)O)cc2Br)ccc1O` [DIBIT, 3′-isopropyl-3,5-dibromo-L-thyronine], in data set [1], the “potency relative to L-T4” value is recorded as 2-7 fold.
For `Cc1cc(OCC(=O)O)cc(C)c1Cc1ccc(O)c(C(C)C)c1` [GC-1, sobetirome, reference compound], in the data set with Hairless (Hr) mRNA, the “induction of Hr expression” value was 1.6 fold and the “EC50 of Hr mRNA induction in the brain” value is 8.20 ± 12.65 µmol/kg.
For the compound `CC(C)c1cc(Cc2c(Br)cc(OCC(=O)O)cc2Br)ccc1O` [JD-20, 2-(3,5-dibromo-4-((3-isopropyl-4-hydroxyphenyl)methyl)-phenoxy)acetic acid], in data set [2], the “brain:serum ratio compared to GC-1” value was “comparable to GC-1”, the “brain uptake compared to GC-1” value is “somewhat lower” and the “serum levels compared to GC-1” value was “significantly lower than GC-1”. Further, the “TRβ/TRα subtype selectivity from EC50 values” with hTRβ1 [3] was determined as 9.04. This compound also gave an EC50 on hTRβ1 [4] of 0.88 ± 1.12 nM. Also, on hTRα1, the response was half-maximal at 7.96 ± 6.95 nM (EC50). In addition, in the data set on Hairless (Hr) mRNA, the “Hr induction compared to GC-1” value is on record as “comparable Hr induction to GC-1”; the “potency greater than GC-1 (Hr induction, single dose)” value is listed as “roughly 10 fold”; the “EC50 of Hr mRNA induction in the brain” value stood at 1.49 ± 1.08 µmol/kg.
On to `CC(C)c1cc(Cc2c(Cl)cc(OCC(=O)O)cc2Cl)ccc1O` [JD-21, 2-(3,5-dichloro-4-((3-isopropyl-4-hydroxyphenyl)methyl)-phenoxy)acetic acid], for which, in data set [2], the “brain:serum ratio compared to GC-1” value is “higher brain:serum ratio than GC-1”, the “brain uptake compared to GC-1” value is “roughly comparable brain uptake compared to GC-1” and the “serum levels compared to GC-1” value was “significantly lower than GC-1”. Further, in the data set on hTRβ1 [3], the “TRβ/TRα subtype selectivity from EC50 values” worked out at 6.31. The compound further had an EC50 on hTRβ1 [4] of 1.24 ± 1.3 nM. Also, the EC50 at hTRα1 came to 7.82 ± 3.61 nM. In the data set on Hairless (Hr) mRNA, the “induction of Hr expression” value is reported as 2.4 fold; the “Hr induction compared to GC-1” value is “comparable Hr induction to GC-1”; the “potency greater than GC-1 (Hr induction, single dose)” value is given as “roughly 10 fold”; the “EC50 of Hr mRNA induction in the brain” value is 1.21 ± 1.75 µmol/kg.
Consider `CNC(=O)COc1cc(Cl)c(Cc2ccc(O)c(C(C)C)c2)c(Cl)c1` [MA-JD21, 2-(3,5-dichloro-4-(4-hydroxy-3-isopropylbenzl)phenoxy)-N-methylacetamide], for which the “parent drug delivered to the CNS compared to unmodified JD-20 or JD-21” value in data set [5] is on record as “delivers more of the parent drugs to the CNS”. On Human FAAH (100 μM, COS-7 cell homogenate), the FAAH substrate entry was “substrates for fatty-acid amide hydrolase (FAAH)”. In addition, at Human FAAH (substrate 100 μM, FAAH overexpressed in COS-7 cell homogenate), the “decreased observed rate of substrate cleavage compared to AEA” value came out at 20 fold.

(Values after patent US10544075B2 (OREGON HEALTH & SCIENCE UNIVERSITY, priority 2016, dated 2020).)
